Data taken from patent publication US20250084080A1, “CRYSTALLINE AND SALT FORMS OF AN NLRP3 INHIBITOR” (BioAge Labs, Inc., priority 2023, published 2025).

Assays:
Format in all cases: physicochemical
[1] = Bulk stability (solid state, 1 week; HPLC, XRPD, IC, color); set-up: key to CL (color): A: no change of color; B: slight discoloration; C: medium discoloration; D: strong discoloration; settings: for Bulk (HPLC) Purity / Bulk (XRPD) / CL (color): Solid state
Procedure: Bulk stability of free form Pattern B was evaluated at 25° C./92.5% RH in an open container, at 40° C./75% RH in an open container and at 60° C. in a tight container over 1 week.

[2] = Solubility at 37° C. in buffers and biorelevant media, XRPD of residual solid; settings: for solubility at 2 h / solubility at 24 h: thermodynamic from solid
Procedure: Solubility of BAL-0748 free form Pattern B was investigated in pH 1.2 HCl buffer, pH 4.5 50 mM acetate buffer, pH 6.8 50 mM phosphate buffer, water, pH 1.6 FaSSGF, pH 6.5 FaSSIF-v1, pH 5.0 FeSSIF-v1 and 2% HPMC+1% Pluronic F68 in pH 4.5 50 mM acetate buffer at 37° C. for 2 h and 24 h. Residual solids after the solubility test were analyzed by XRPD.
Solubility of the free form Pattern A, the HCl salt Pattern A, the phosphate salt Pattern A, and the sodium salt Pattern A was measured in pH 1.2 HCl buffer, pH 4.5 acetate buffer (50 mM), pH 6.8 phosphate buffer (50 mM), water, pH 1.6 FaSSGF, pH 6.5 FaSSIF-v1, pH 5.0 FeSSIF-v1, and 2% HPMC+1% Pluronic F68 in pH 4.5 acetate buffer (50 mM) at 37° C. for 2 hours and 24 hours.
10.4 mg of the free form Pattern A, 10.0 mg of the free form Pattern B, 10.8 mg of the HCl salt Pattern A, 12.2 mg of the phosphate salt Pattern A, or 10.5 mg of the sodium salt Pattern A was weighed into a 20 mL glass vial, respectively. 5 mL of solubility medium was added. The salt amount used was equivalent to 10 mg anhydrous free form. Obtained suspensions were stirred at 37° C. at 400 rpm and sampled at 2 hours and at 24 hours. The samples were centrifuged at 37° C. at 14,000 rpm for 5 min. Supernatants were analyzed by HPLC and PH meter for solubility and pH value, respectively. Residual solids (wet cakes) from the 24 hours samples were also characterized by XRPD to determine physical form.

[3] = Hygroscopicity by dynamic vapor sorption (DVS) at 25° C.; settings: for Desorp. (%) / Sorp. (%): DVS 25° C.
Procedure: Dynamic vapor sorption (DVS) was performed on an Intrinsic, Advantage or Adventure with an oven temperature of 25° C. using water as a solvent. The sample mass was about 5-10 mg using the following method: • Cycle: 40-0-95-0-40% RH • Stage Step: 10% • Equilibrium: 0.002 dm/dt (%/min) • Minimum dm/dt stability duration: 60 min • Maximum dm/dt stage time: 360 min. Hygroscopicity of free form Pattern B was evaluated by dynamic vapor sorption (DVS) test at 25° C. […] It absorbed about 0.8% water at 80% RH at 25° C.

[4] = 25° C./92.5% RH open, 40° C./75% RH open, 60° C. tight container
[5] = aqueous buffer, pH 4.5 acetate buffer (50 mM), 37° C.
[6] = aqueous buffer, pH 6.8 phosphate buffer (50 mM), 37° C.
[7] = aqueous with cosolvent or surfactant or cyclodextrin, 2% HPMC + 1% Pluronic F68 in pH 4.5 acetate buffer (50 mM), 37° C.
[8] = fassgf or other biorelevant, FaSSGF, pH 1.6, 37° C.
[9] = simulated gastric fluid, pH 1.2 HCl buffer, 37° C.

## CCOc1cc(C(=O)N(C)Cc2cnc(CO)c3cn[nH]c23)ccc1-c1cc(F)cc(F)c1.O=P(O)(O)O [Phosphate salt Pattern A, 2-ethoxy-3′,5′-difluoro-N-((4-(hydroxymethyl)-1H-pyrazolo[4,3-c]pyridin-7-yl)methyl)-N-methyl-[1,1′-biphenyl]-4-carboxamide phosphoric acid salt]
[1]; [4]
  Bulk stability, chemical and physical: chemically and physically stable
  Degradation by HPLC: no obvious degradation
  Form change by XRPD: no form change
[1]; 25° C./92.5% RH, open
  Bulk (HPLC) Purity: 98.2%
  Bulk (XRPD): No form change
  CL (color): A
[1]; 40° C./75% RH, open
  Bulk (HPLC) Purity: 98.2%
  Bulk (XRPD): No form change
  CL (color): A
[1]; 60° C., closed
  Bulk (HPLC) Purity: 98.2%
  Bulk (XRPD): No form change
  CL (color): A
[2]; 2% HPMC + 1% Pluronic F68 in pH 4.5 acetate buffer (50 mM), 37° C.
  pH of supernatant at 24 h: (4.5)
[2]; 2% HPMC+1% Pluronic F68 in acetate buffer (pH 4.5)
  Solubility compared with the free form Pattern A: comparable solubility
[2]; FaSSGF, pH 1.6, 37° C.
  pH of supernatant at 24 h: (1.6)
[2]; FaSSIF-v1, pH 6.5, 37° C.
  pH of supernatant at 24 h: (6.2)
  solubility at 2 h: 8.4 µg/mL
  solubility at 24 h: 13.7 µg/mL
[2]; FeSSIF-v1, pH 5.0, 37° C.
  pH of supernatant at 24 h: (4.9)
  solubility at 2 h: 140 µg/mL
  solubility at 24 h: 159 µg/mL
[2]; Water, 37° C.
  pH of supernatant at 24 h: (2.6)
  solubility at 2 h: 384 µg/mL
  solubility at 24 h: 442 µg/mL
[2]; [5]
  solubility at 2 h: 9.4 µg/mL
  solubility at 24 h: 11.8 µg/mL
[2]; [6]
  solubility at 2 h: 2.4 µg/mL
  solubility at 24 h: 2.9 µg/mL
[2]; [7]
  solubility at 2 h: 16.4 µg/mL
  solubility at 24 h: 17.9 µg/mL
[2]; [8]
  solubility at 2 h: 710 µg/mL
  solubility at 24 h: 653 µg/mL
[2]; pH 1.2 HCl buffer, 37° C.
  pH of supernatant at 24 h: (1.2)
[2]; pH 4.5 acetate buffer (50 mM), 37° C.
  pH of supernatant at 24 h: (4.4)
[2]; pH 6.8 phosphate buffer (50 mM), 37° C.
  pH of supernatant at 24 h: (6.7)
[2]; pure water
  Solubility compared with the free form Pattern A: obviously higher solubility
[2]; [9]
  solubility at 2 h: 402 µg/mL
  solubility at 24 h: 390 µg/mL
[3]; 0% RH, 1st desorption
  Desorp. (%): 0.03%
[3]; 0% RH, 1st sorption
  Sorp. (%): 0.03%
[3]; 0% RH, 2nd desorption
  Desorp. (%): 0.00%
[3]; 0% RH, 2nd sorption
  Sorp. (%): 0.00%
[3]; 10% RH, 1st desorption
  Desorp. (%): 0.12%
[3]; 10% RH, 1st sorption
  Sorp. (%): 0.11%
[3]; 10% RH, 2nd desorption
  Desorp. (%): 0.09%
[3]; 10% RH, 2nd sorption
  Sorp. (%): 0.09%
[3]; 20% RH, 1st desorption
  Desorp. (%): 0.16%
[3]; 20% RH, 1st sorption
  Sorp. (%): 0.15%
[3]; 20% RH, 2nd desorption
  Desorp. (%): 0.14%
[3]; 20% RH, 2nd sorption
  Sorp. (%): 0.13%
[3]; 30% RH, 1st desorption
  Desorp. (%): 0.20%
[3]; 30% RH, 1st sorption
  Sorp. (%): 0.18%
[3]; 30% RH, 2nd desorption
  Desorp. (%): 0.18%
[3]; 30% RH, 2nd sorption
  Sorp. (%): 0.17%
[3]; 40% RH, 1st desorption
  Desorp. (%): 0.24%
[3]; 40% RH, 1st sorption
  Sorp. (%): 0.23%
[3]; 40% RH, 2nd desorption
  Desorp. (%): 0.23%
[3]; 40% RH, 2nd sorption
  Sorp. (%): 0.21%
[3]; 50% RH, 1st sorption
  Sorp. (%): 0.27%
[3]; 50% RH, 2nd desorption
  Desorp. (%): 0.29%
[3]; 60% RH, 1st sorption
  Sorp. (%): 0.32%
[3]; 60% RH, 2nd desorption
  Desorp. (%): 0.35%
[3]; 70% RH, 1st sorption
  Sorp. (%): 0.37%
[3]; 70% RH, 2nd desorption
  Desorp. (%): 0.41%
[3]; 80% RH, 1st sorption
  Sorp. (%): 0.45%
[3]; 80% RH, 2nd desorption
  Desorp. (%): 0.48%
[3]; 90% RH, 1st sorption
  Sorp. (%): 0.61%
[3]; 90% RH, 2nd desorption
  Desorp. (%): 0.63%
[3]; 95% RH, 1st sorption
  Sorp. (%): 0.82%
[3]; 95% RH, 2nd desorption
  Desorp. (%): 0.82%
[3]; DVS at 25° C.
  XRPD after DVS test: No form change
[3]; DVS at 25° C., 80% RH
  Water absorbed at 80% RH: It absorbed 0.5%
